Each compound was assayed on 843126-344-R-J1-PDC complex spheroid viability (assay: Anticancer human tumor 843126-344-R-J1-PDC patient-derived melanoma cell line growth inhibition [POLQ]). Conditions: second compound 0.316 µM; first compound 0.316 µM; stronger effect = lower value.
In short: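 Growth inhibition in 3D: complex spheroids (tumor PDC, HUVEC, MSC) treated with POLQ inhibitor combinations; where Cmax unknown, highest tested concentration 10 microM, except SN-38 at 1 microM.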
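Further: spheroids exposed to drugs for seven days before readout.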

Row | Structure (SMILES) | viability, T/C [%]
1 | COc1cccc(OCCCN)c1-c1cc(Nc2cnc(C#N)cn2)n[nH]1 + Nc1ccc(C#CCN(C(=O)Cc2ncc(C(F)(F)F)cc2C(F)(F)F)c2ccc(F)cc2)nn1 | 42.2
2 | O=c1[nH]cc(F)c(=O)[nH]1 + Cc1cccc(N(C)C(=O)C2C(O)CCN2c2nc(C)cc(C(F)(F)F)c2C#N)c1 | 96.7
3 | C=CCn1c(=O)c2cnc(Nc3ccc(N4CCN(C)CC4)cc3)nc2n1-c1cccc(C(C)(C)O)n1 + COC1C(OC(N)=O)C(O)C(Oc2ccc3c(O)c(NC(=O)c4ccc(O)c(CC=C(C)C)c4)c(=O)oc3c2C)OC1(C)C | 81.2
4 | CCc1c2c(nc3ccc(O)cc13)-c1cc3c(c(=O)n1C2)COC(=O)[C@]3(O)CC + COC1C(OC(N)=O)C(O)C(Oc2ccc3c(O)c(NC(=O)c4ccc(O)c(CC=C(C)C)c4)c(=O)oc3c2C)OC1(C)C | 73
5 | O=c1[nH]cc(F)c(=O)[nH]1 + Nc1ccc(C#CCN(C(=O)Cc2ncc(C(F)(F)F)cc2C(F)(F)F)c2ccc(F)cc2)nn1 | 101
6 | COc1cc2cc(C(=O)CCC(=O)O)sc2cc1OC + COC1C(OC(N)=O)C(O)C(Oc2ccc3c(O)c(NC(=O)c4ccc(O)c(CC=C(C)C)c4)c(=O)oc3c2C)OC1(C)C | 121

Same assay, conditions: second compound 0.316 µM; first compound 1 µM; stronger effect = lower value

Row | Structure (SMILES) | viability, T/C [%]
7 | COc1cc(C2c3cc4c(cc3C(OC3OC5COC(C)OC5C(O)C3O)C3COC(=O)C23)OCO4)cc(OC)c1O (stereo unspecified) + Nc1ccc(C#CCN(C(=O)Cc2ncc(C(F)(F)F)cc2C(F)(F)F)c2ccc(F)cc2)nn1 | 78.9
8 | COc1cccc(OCCCN)c1-c1cc(Nc2cnc(C#N)cn2)n[nH]1 + Nc1ccc(C#CCN(C(=O)Cc2ncc(C(F)(F)F)cc2C(F)(F)F)c2ccc(F)cc2)nn1 | 35.1
9 | O=c1[nH]cc(F)c(=O)[nH]1 + Cc1cccc(N(C)C(=O)C2C(O)CCN2c2nc(C)cc(C(F)(F)F)c2C#N)c1 | 82.2
10 | C=CCn1c(=O)c2cnc(Nc3ccc(N4CCN(C)CC4)cc3)nc2n1-c1cccc(C(C)(C)O)n1 + COC1C(OC(N)=O)C(O)C(Oc2ccc3c(O)c(NC(=O)c4ccc(O)c(CC=C(C)C)c4)c(=O)oc3c2C)OC1(C)C | 86.6
11 | CCc1c2c(nc3ccc(O)cc13)-c1cc3c(c(=O)n1C2)COC(=O)[C@]3(O)CC + COC1C(OC(N)=O)C(O)C(Oc2ccc3c(O)c(NC(=O)c4ccc(O)c(CC=C(C)C)c4)c(=O)oc3c2C)OC1(C)C | 50.3
12 | O=c1[nH]cc(F)c(=O)[nH]1 + Nc1ccc(C#CCN(C(=O)Cc2ncc(C(F)(F)F)cc2C(F)(F)F)c2ccc(F)cc2)nn1 | 101
13 | COc1cc2cc(C(=O)CCC(=O)O)sc2cc1OC + COC1C(OC(N)=O)C(O)C(Oc2ccc3c(O)c(NC(=O)c4ccc(O)c(CC=C(C)C)c4)c(=O)oc3c2C)OC1(C)C | 117

Same assay, conditions: second compound 0.316 µM; first compound 3.16 µM; stronger effect = lower value

Row | Structure (SMILES) | viability, T/C [%]
14 | COc1cc(C2c3cc4c(cc3C(OC3OC5COC(C)OC5C(O)C3O)C3COC(=O)C23)OCO4)cc(OC)c1O (stereo unspecified) + Nc1ccc(C#CCN(C(=O)Cc2ncc(C(F)(F)F)cc2C(F)(F)F)c2ccc(F)cc2)nn1 | 70.1
15 | O=c1[nH]cc(F)c(=O)[nH]1 + Cc1cccc(N(C)C(=O)C2C(O)CCN2c2nc(C)cc(C(F)(F)F)c2C#N)c1 | 110
16 | O=c1[nH]cc(F)c(=O)[nH]1 + Nc1ccc(C#CCN(C(=O)Cc2ncc(C(F)(F)F)cc2C(F)(F)F)c2ccc(F)cc2)nn1 | 111
17 | COc1cc2cc(C(=O)CCC(=O)O)sc2cc1OC + COC1C(OC(N)=O)C(O)C(Oc2ccc3c(O)c(NC(=O)c4ccc(O)c(CC=C(C)C)c4)c(=O)oc3c2C)OC1(C)C | 89

Same assay, conditions: second compound 0.316 µM; first compound 10 µM; stronger effect = lower value

Row | Structure (SMILES) | viability, T/C [%]
18 | COc1cc(C2c3cc4c(cc3C(OC3OC5COC(C)OC5C(O)C3O)C3COC(=O)C23)OCO4)cc(OC)c1O (stereo unspecified) + Nc1ccc(C#CCN(C(=O)Cc2ncc(C(F)(F)F)cc2C(F)(F)F)c2ccc(F)cc2)nn1 | 49.5
19 | O=c1[nH]cc(F)c(=O)[nH]1 + Cc1cccc(N(C)C(=O)C2C(O)CCN2c2nc(C)cc(C(F)(F)F)c2C#N)c1 | 103
20 | O=c1[nH]cc(F)c(=O)[nH]1 + Nc1ccc(C#CCN(C(=O)Cc2ncc(C(F)(F)F)cc2C(F)(F)F)c2ccc(F)cc2)nn1 | 92.6
21 | COc1cc2cc(C(=O)CCC(=O)O)sc2cc1OC + COC1C(OC(N)=O)C(O)C(Oc2ccc3c(O)c(NC(=O)c4ccc(O)c(CC=C(C)C)c4)c(=O)oc3c2C)OC1(C)C | 84.4

Same assay, conditions: second compound 1 µM; first compound 0.00316 µM; stronger effect = lower value

Row | Structure (SMILES) | viability, T/C [%]
22 | COc1cccc(OCCCN)c1-c1cc(Nc2cnc(C#N)cn2)n[nH]1 + Nc1ccc(C#CCN(C(=O)Cc2ncc(C(F)(F)F)cc2C(F)(F)F)c2ccc(F)cc2)nn1 | 89.8
23 | C=CCn1c(=O)c2cnc(Nc3ccc(N4CCN(C)CC4)cc3)nc2n1-c1cccc(C(C)(C)O)n1 + COC1C(OC(N)=O)C(O)C(Oc2ccc3c(O)c(NC(=O)c4ccc(O)c(CC=C(C)C)c4)c(=O)oc3c2C)OC1(C)C | 78.4
24 | CCc1c2c(nc3ccc(O)cc13)-c1cc3c(c(=O)n1C2)COC(=O)[C@]3(O)CC + COC1C(OC(N)=O)C(O)C(Oc2ccc3c(O)c(NC(=O)c4ccc(O)c(CC=C(C)C)c4)c(=O)oc3c2C)OC1(C)C | 66.7

Same assay, conditions: second compound 1 µM; first compound 0.01 µM; stronger effect = lower value

Row | Structure (SMILES) | viability, T/C [%]
25 | COc1cccc(OCCCN)c1-c1cc(Nc2cnc(C#N)cn2)n[nH]1 + Nc1ccc(C#CCN(C(=O)Cc2ncc(C(F)(F)F)cc2C(F)(F)F)c2ccc(F)cc2)nn1 | 72.6
26 | C=CCn1c(=O)c2cnc(Nc3ccc(N4CCN(C)CC4)cc3)nc2n1-c1cccc(C(C)(C)O)n1 + COC1C(OC(N)=O)C(O)C(Oc2ccc3c(O)c(NC(=O)c4ccc(O)c(CC=C(C)C)c4)c(=O)oc3c2C)OC1(C)C | 90.3
27 | CCc1c2c(nc3ccc(O)cc13)-c1cc3c(c(=O)n1C2)COC(=O)[C@]3(O)CC + COC1C(OC(N)=O)C(O)C(Oc2ccc3c(O)c(NC(=O)c4ccc(O)c(CC=C(C)C)c4)c(=O)oc3c2C)OC1(C)C | 48.2

Same assay, conditions: second compound 1 µM; first compound 0.0316 µM; stronger effect = lower value

Row | Structure (SMILES) | viability, T/C [%]
28 | COc1cc(C2c3cc4c(cc3C(OC3OC5COC(C)OC5C(O)C3O)C3COC(=O)C23)OCO4)cc(OC)c1O (stereo unspecified) + Nc1ccc(C#CCN(C(=O)Cc2ncc(C(F)(F)F)cc2C(F)(F)F)c2ccc(F)cc2)nn1 | 96.1
29 | COc1cccc(OCCCN)c1-c1cc(Nc2cnc(C#N)cn2)n[nH]1 + Nc1ccc(C#CCN(C(=O)Cc2ncc(C(F)(F)F)cc2C(F)(F)F)c2ccc(F)cc2)nn1 | 59.6
30 | O=c1[nH]cc(F)c(=O)[nH]1 + Cc1cccc(N(C)C(=O)C2C(O)CCN2c2nc(C)cc(C(F)(F)F)c2C#N)c1 | 101
31 | C=CCn1c(=O)c2cnc(Nc3ccc(N4CCN(C)CC4)cc3)nc2n1-c1cccc(C(C)(C)O)n1 + COC1C(OC(N)=O)C(O)C(Oc2ccc3c(O)c(NC(=O)c4ccc(O)c(CC=C(C)C)c4)c(=O)oc3c2C)OC1(C)C | 86.6
32 | CCc1c2c(nc3ccc(O)cc13)-c1cc3c(c(=O)n1C2)COC(=O)[C@]3(O)CC + COC1C(OC(N)=O)C(O)C(Oc2ccc3c(O)c(NC(=O)c4ccc(O)c(CC=C(C)C)c4)c(=O)oc3c2C)OC1(C)C | 50.9
33 | O=c1[nH]cc(F)c(=O)[nH]1 + Nc1ccc(C#CCN(C(=O)Cc2ncc(C(F)(F)F)cc2C(F)(F)F)c2ccc(F)cc2)nn1 | 110
34 | COc1cc2cc(C(=O)CCC(=O)O)sc2cc1OC + COC1C(OC(N)=O)C(O)C(Oc2ccc3c(O)c(NC(=O)c4ccc(O)c(CC=C(C)C)c4)c(=O)oc3c2C)OC1(C)C | 96.1

Same assay, conditions: second compound 1 µM; first compound 0.1 µM; stronger effect = lower value

Row | Structure (SMILES) | viability, T/C [%]
35 | COc1cc(C2c3cc4c(cc3C(OC3OC5COC(C)OC5C(O)C3O)C3COC(=O)C23)OCO4)cc(OC)c1O (stereo unspecified) + Nc1ccc(C#CCN(C(=O)Cc2ncc(C(F)(F)F)cc2C(F)(F)F)c2ccc(F)cc2)nn1 | 83.6
36 | COc1cccc(OCCCN)c1-c1cc(Nc2cnc(C#N)cn2)n[nH]1 + Nc1ccc(C#CCN(C(=O)Cc2ncc(C(F)(F)F)cc2C(F)(F)F)c2ccc(F)cc2)nn1 | 49.2

Source: PubChem BioAssay AID1963837 (Molecular Pharmacology Branch, DTP, NCI, 2024)
